{"source": "paper PMC9911596", "about": "(Nature Communications, 2023)", "molecular_target": "T1, Vtc1/Vtc3/Vtc4 complex (VTC complex) (Saccharomyces cerevisiae, UniProt P47075+Q02725, P47075:K129A/P47075:K132A/P47075:K136A)", "T1 construct": "full-length subunits co-expressed in Expi293F; Vtc1 C-terminal HA, Vtc3 N-terminal 3xFlag, Vtc4 C-terminal 2xStrep; detergent-purified; 3:1:1 pentamer; with Vacuolar transporter chaperone complex subunit 1", "T1 sequence (P47075 1-721 K129A/K132A/K136A)": "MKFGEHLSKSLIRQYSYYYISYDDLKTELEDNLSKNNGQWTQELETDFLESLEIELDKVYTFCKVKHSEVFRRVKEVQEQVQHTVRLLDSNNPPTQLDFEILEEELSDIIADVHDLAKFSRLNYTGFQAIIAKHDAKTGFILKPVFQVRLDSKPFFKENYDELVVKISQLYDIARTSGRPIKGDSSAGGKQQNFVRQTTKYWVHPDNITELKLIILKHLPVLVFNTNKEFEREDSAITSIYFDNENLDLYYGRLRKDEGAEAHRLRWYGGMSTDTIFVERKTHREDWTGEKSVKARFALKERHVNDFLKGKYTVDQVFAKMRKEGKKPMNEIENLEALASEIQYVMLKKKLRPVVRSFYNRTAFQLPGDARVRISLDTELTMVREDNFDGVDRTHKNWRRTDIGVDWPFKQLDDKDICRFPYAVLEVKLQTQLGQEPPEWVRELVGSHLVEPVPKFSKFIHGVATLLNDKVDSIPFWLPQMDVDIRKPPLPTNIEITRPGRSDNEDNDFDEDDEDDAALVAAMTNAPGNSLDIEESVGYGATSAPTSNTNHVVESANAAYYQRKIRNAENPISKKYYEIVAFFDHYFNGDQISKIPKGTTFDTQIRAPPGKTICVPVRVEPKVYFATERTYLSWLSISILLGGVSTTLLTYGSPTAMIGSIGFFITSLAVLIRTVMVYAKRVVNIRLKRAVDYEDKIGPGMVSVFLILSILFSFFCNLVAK", "T1 sequence (Q02725 1-835)": "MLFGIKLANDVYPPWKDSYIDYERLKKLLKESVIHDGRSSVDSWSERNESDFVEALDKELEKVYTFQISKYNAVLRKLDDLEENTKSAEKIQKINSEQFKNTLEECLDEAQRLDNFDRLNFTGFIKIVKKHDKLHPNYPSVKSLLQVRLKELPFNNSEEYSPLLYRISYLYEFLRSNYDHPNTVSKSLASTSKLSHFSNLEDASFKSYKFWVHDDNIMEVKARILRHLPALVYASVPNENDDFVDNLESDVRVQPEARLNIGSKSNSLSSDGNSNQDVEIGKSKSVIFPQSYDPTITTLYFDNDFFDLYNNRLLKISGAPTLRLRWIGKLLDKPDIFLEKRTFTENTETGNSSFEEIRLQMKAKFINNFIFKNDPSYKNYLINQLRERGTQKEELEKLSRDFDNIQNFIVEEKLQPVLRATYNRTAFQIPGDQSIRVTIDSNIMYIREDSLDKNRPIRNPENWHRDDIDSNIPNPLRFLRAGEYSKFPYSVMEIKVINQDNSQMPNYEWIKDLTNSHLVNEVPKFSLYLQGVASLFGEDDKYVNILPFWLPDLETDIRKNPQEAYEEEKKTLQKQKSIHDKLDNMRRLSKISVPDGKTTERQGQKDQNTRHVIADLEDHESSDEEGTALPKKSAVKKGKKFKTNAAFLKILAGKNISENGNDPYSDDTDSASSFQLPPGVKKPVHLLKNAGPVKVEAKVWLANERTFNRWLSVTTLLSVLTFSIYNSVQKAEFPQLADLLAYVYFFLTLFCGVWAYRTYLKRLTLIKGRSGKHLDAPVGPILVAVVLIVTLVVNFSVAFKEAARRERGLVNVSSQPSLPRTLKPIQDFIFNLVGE", "T1 sequence (P40046 2-129 partner)": "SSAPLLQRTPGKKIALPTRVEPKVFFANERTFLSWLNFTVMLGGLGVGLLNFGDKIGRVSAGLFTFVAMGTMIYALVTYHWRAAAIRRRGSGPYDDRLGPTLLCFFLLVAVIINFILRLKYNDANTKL", "test": "polyP synthesis, TBE-PAGE", "format": "biochemical", "conditions": "activator; 15 mM ATP, 10 mM MgCl2, 1 mM MnCl2, 0.5 mM pyrophosphate, 27 °C, 4 h; SPX KSC mutant"}
{"smiles": "O=P(O)(O)O[C@H]1[C@H](OP(=O)(O)O)[C@@H](OP(=O)(O)O)[C@H](OP(=O)(O)O)[C@@H](OP(=O)(O)O)[C@H]1OP(=O)(O)O", "note": "[InsP6]", "values": [{"measurement": "polyP synthesis, TBE-PAGE", "result": "both reduced InsP6-stimulated polyP synthesis"}]}
